# Test results as given in patent US20110312894A1 (priority 2009, published 2011).
# Where two headings read alike, the source gives them in different places.
# Legend:
# [1] = biological target: T1, heteromeric α7β2-nAChRs on MS/DB cholinergic neurons (Rattus norvegicus, UniProt P12390+Q05941); type: cell-based; conditions: for form-dependent suppression of choline-induced responses: 1 nM of the peptide form
# T1 construct: functional nAChRs naturally expressed on rat MS/DB cholinergic neurons; endogenous in cells; host or cells: acutely dissociated MS/DB neurons of 2-4 week-old Wistar rats
# T1 sequence (Q05941 23-502): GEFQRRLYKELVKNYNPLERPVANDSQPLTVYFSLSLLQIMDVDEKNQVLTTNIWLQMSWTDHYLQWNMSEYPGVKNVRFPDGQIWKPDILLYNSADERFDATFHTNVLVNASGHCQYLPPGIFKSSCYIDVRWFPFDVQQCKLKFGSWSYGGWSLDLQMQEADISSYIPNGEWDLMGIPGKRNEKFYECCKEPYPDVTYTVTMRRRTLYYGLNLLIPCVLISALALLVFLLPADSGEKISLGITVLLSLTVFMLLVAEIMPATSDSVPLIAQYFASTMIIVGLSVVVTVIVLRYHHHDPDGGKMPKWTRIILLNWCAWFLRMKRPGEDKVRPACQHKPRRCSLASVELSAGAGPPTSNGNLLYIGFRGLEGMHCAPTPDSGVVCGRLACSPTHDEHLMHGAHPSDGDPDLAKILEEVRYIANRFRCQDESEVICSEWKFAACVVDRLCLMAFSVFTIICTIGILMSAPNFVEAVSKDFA
# T1 sequence (P12390 25-500): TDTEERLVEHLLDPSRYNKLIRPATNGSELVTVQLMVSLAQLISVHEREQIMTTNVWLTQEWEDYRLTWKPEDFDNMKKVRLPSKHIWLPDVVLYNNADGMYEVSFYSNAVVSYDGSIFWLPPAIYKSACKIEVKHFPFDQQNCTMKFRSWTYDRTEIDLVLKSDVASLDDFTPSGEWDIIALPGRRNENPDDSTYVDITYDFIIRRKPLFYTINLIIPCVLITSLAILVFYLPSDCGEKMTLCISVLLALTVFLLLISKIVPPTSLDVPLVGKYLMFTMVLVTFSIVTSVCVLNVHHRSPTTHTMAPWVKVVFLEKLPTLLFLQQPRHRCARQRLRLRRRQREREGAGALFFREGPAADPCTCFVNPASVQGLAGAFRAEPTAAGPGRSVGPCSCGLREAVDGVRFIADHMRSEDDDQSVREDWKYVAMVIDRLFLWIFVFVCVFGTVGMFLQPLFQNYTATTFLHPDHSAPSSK
# Procedure: (§1) Briefly, each postnatal 2-4 week-old Wistar rat or mouse (wild-type C57/B16 or nAChR β2 knockout mice on a C57/B16 background kindly provided by Dr. Marina Picciotto, Yale University) was anesthetized using isoflurane, and the brain was rapidly removed. Several 400-μm coronal slices, which contained the medial septum/diagonal band (MS/DB) or the ventral tegmental area (VTA), were cut using a vibratome (Vibratorne 1000 plus; Jed Pella Inc., Redding, Calif.) in cold (2-4° C.) artificial cerebrospinal fluid (ACSF) and continuously bubbled with carbogen (95% O2-5% CO2). The slices were then incubated in a pre-incubation chamber (Warner Ins., Holliston, Mass.) and allowed to recover for at least 1 h at room temperature ([…]) in oxygenated ACSF. Thereafter, the slices were treated with pronase (1 mg/6 mL) at 31° C. for 30 min and subsequently treated with the same concentration of thermolysin for another 30 min. The MS/DB or VTA region was micropunched out from the slices using a well-polished needle. […] In particular, perforated-patch recording was used to maintain the intracellular ATP concentration at a physiological level. To prepare for perforated-patch whole-cell recording, glass microelectrodes (GC-1.5; Narishige, East Meadow, N.Y.) were fashioned on a two-stage vertical pipette puller (P-830; Narishige, East Meadow, N.Y.), and the resistance of the electrode was 3 to 5 MΩ when filled with the internal solution. A tight seal (>2 GΩ) was formed between the electrode tip and the cell surface, which was followed by a transition from on-cell to whole-cell recording mode due to the partitioning of amphotericin B into the membrane underlying the patch. After whole-cell formation, an access resistance lower than 60 MΩ was acceptable during perforated-patch recordings in current-clamp mode, and an access resistance lower than 30 MΩ was acceptable during voltage-clamp recordings. The series resistance was not compensated in the experiments using dissociated neurons. Under current-clamp configuration, membrane potentials were measured using a patch-clamp amplifier (200B; Axon Instruments, Foster City, Calif.). […] All experiments were performed at room temperature (22±1° C.).
# [2] = biological target: T2, homomeric α7-nAChRs on VTA DAergic neurons (Rattus norvegicus, UniProt Q05941); type: cell-based
# T2 construct: native nAChR responses in rat MS/DB or VTA neurons; endogenous in cells; host or cells: acutely dissociated VTA dopaminergic neurons of Wistar rats
# T2 sequence (Q05941 23-502): as the sequence (Q05941 23-502) above
# Procedure: as §1
# [3] = biological target: T3, heterologously expressed heteromeric α7β2-nAChRs (Rattus norvegicus, UniProt P12390+Q05941); type: cell-based; conditions: oocytes; 10 mM choline; compared with homomeric α7-nAChR
# T3 construct: expressed in transfected cells; host or cells: Xenopus laevis oocytes injected with cRNA (vector pGEMHE)
# T3 sequence (Q05941 23-502): as above
# T3 sequence (P12390 25-500): as the sequence (P12390 25-500) above
# Procedure: The frogs were then allowed to recover from surgery before being returned to the incubation tank. The lobes were cut into small pieces and digested with 0.08 Wunsch U/mL liberase blendzyme 3 (Roche Applied Science, Indianapolis, Ind.) with constant stirring at room temperature for 1.5-2 h. The dispersed oocytes were thoroughly rinsed with incubation solution. Stage VI oocytes were selected and incubated at 16° C. before injection. Micropipettes used for injection were pulled from borosilicate glass (Drummond Scientific, Broomall, Pa.). cRNAs encoding α7 or β2 at proper dilution were injected into oocytes separately or in different ratios using a Nanoject microinjection system (Drummond Scientific, Broomall, Pa.) at a total volume of ˜20-60 nL.
# The chamber was grounded through an agarose bridge. The oocytes were voltage-clamped at −70 mV to measure ACh (or choline)-induced currents using GeneClamp 500B (Axon Instruments, Foster City, Calif.).
# [4] = biological target: T4, α7-containing-nAChRs on MS/DB neurons from nAChR β2 knockout mice (Mus musculus, UniProt P49582); type: cell-based
# T4 construct: endogenous in cells; host or cells: acutely dissociated MS/DB neurons of nAChR β2 subunit knockout mice (C57/Bl6 background)
# T4 sequence (P49582 23-502): as the sequence (Q05941 23-502) above, with A402T counted along it
# Procedure: (§3) Briefly, each postnatal 2-4 week-old Wistar rat or mouse (wild-type C57/B16 or nAChR β2 knockout mice on a C57/B16 background kindly provided by Dr. Marina Picciotto, Yale University) was anesthetized using isoflurane, and the brain was rapidly removed. Several 400-μm coronal slices, which contained the medial septum/diagonal band (MS/DB) or the ventral tegmental area (VTA), were cut using a vibratome (Vibratorne 1000 plus; Jed Pella Inc., Redding, Calif.) in cold (2-4° C.) artificial cerebrospinal fluid (ACSF) and continuously bubbled with carbogen (95% O2-5% CO2). The slices were then incubated in a pre-incubation chamber (Warner Ins., Holliston, Mass.) and allowed to recover for at least 1 h at room temperature (22±PC) in oxygenated ACSF. Thereafter, the slices were treated with pronase (1 mg/6 mL) at 31° C. for 30 min and subsequently treated with the same concentration of thermolysin for another 30 min. The MS/DB or VTA region was micropunched out from the slices using a well-polished needle. […] In particular, perforated-patch recording was used to maintain the intracellular ATP concentration at a physiological level. […] Under current-clamp configuration, membrane potentials were measured using a patch-clamp amplifier (200B; Axon Instruments, Foster City, Calif.). […]
# MS/DB neurons = assay: Current-clamp recording of spontaneous action potential firing in dissociated MS/DB neurons; type: cell-based, rat; conditions: 1 μM
# Procedure: as §3
# [5] = biological target: T5, α7β2-nAChRs on MS/DB neurons from wild-type mice (Mus musculus, UniProt P49582+Q9ERK7); assay: Whole-cell current recordings, MS/DB neurons from wild-type mice; type: cell-based; conditions: 1 nM peptide
# T5 construct: heteromeric α7β2-nAChRs exist in rodent basal forebrain cholinergic neurons; endogenous in cells; host or cells: acutely dissociated MS/DB neurons of wild-type C57/Bl6 mice
# T5 sequence (P49582 23-502): as the sequence (Q05941 23-502) above, with A402T counted along it
# T5 sequence (Q9ERK7 26-501): as the sequence (P12390 25-500) above, with A350T, V371M, R379Q, T383A, P387L, V391M, V449I, P468S counted along it
# Procedure: as §3
# GABAA receptors = assay: GABA-induced whole-cell currents in rat MS/DB cholinergic neurons; type: cell-based; conditions: 1 nM peptide; 0.1 mM GABA
# Procedure: (§2) Briefly, each postnatal 2-4 week-old Wistar rat or mouse (wild-type C57/B16 or nAChR β2 knockout mice on a C57/B16 background kindly provided by Dr. Marina Picciotto, Yale University) was anesthetized using isoflurane, and the brain was rapidly removed. Several 400-μm coronal slices, which contained the medial septum/diagonal band (MS/DB) or the ventral tegmental area (VTA), were cut using a vibratome (Vibratorne 1000 plus; Jed Pella Inc., Redding, Calif.) in cold (2-4° C.) artificial cerebrospinal fluid (ACSF) and continuously bubbled with carbogen (95% O2-5% CO2). The slices were then incubated in a pre-incubation chamber (Warner Ins., Holliston, Mass.) and allowed to recover for at least 1 h at room temperature ([…]) in oxygenated ACSF. Thereafter, the slices were treated with pronase (1 mg/6 mL) at 31° C. for 30 min and subsequently treated with the same concentration of thermolysin for another 30 min. The MS/DB or VTA region was micropunched out from the slices using a well-polished needle. […] In particular, perforated-patch recording was used to maintain the intracellular ATP concentration at a physiological level. […] Under current-clamp configuration, membrane potentials were measured using a patch-clamp amplifier (200B; Axon Instruments, Foster City, Calif.). […]
# [6] = tested on: ionotropic glutamate receptors; assay: Glutamate-induced whole-cell currents in rat MS/DB cholinergic neurons; type: cell-based; conditions: 1 nM peptide; 1 mM glutamate
# Procedure: as §2
compound,measurement,setting,value
"CO[C@H]1CC=C2CCN3CCC4=C(CC(=O)OC4)[C@]23C1 [DHβE, dihydro-β-erythroidine]","Hill coefficient, inhibition of choline-induced currents","[1]; 10 mM choline, MS/DB neurons, n=8",0.9
same,IC50,"[1]; 10 mM choline, MS/DB neurons, n=8, read-out: IC50, inhibition of choline-induced currents",170 nM
same,"potency difference as inhibitor of choline-induced current, MS/DB vs VTA neurons",[1]; MS/DB neurons compared with VTA neurons,~500 fold
same,"Hill coefficient, inhibition of choline-induced currents","[2]; 10 mM choline, VTA neurons",0.3
same,IC50,"[2]; 10 mM choline, VTA neurons, n=7, read-out: IC50, inhibition of choline-induced currents",> 100000 nM
same,"sensitivity to functional blockade, α7β2- vs α7-nAChR",[3],more sensitive
same,sensitivity of choline-induced currents to antagonist,[4]; MS/DB neurons from β2 knockouts compared with wild-type,lower sensitivity
CNCC/C=C/c1cccnc1 [RJR-2403],agonist-evoked inward current compared with ACh-induced response,[1],insensitive
same,agonist-evoked current compared with ACh-induced response,[2],mimicked
C[C@@H]1O[C@H](C[N+](C)(C)C)C[C@H]1O [muscarine],effect on spontaneous action potential firing,MS/DB neurons,insensitive
"Aβ1-42: amyloid beta peptides at positions 1-42 of the amyloid precursor protein, purchased from rPeptide",effect on choline-induced currents,[1],progressively inhibited with time
same,effect on choline-induced currents,"[1]; 0.1 nM peptide, MS/DB neurons",negligible
same,effect on ACh-induced current,"[1]; 1 nM peptide, 1 mM ACh, MS/DB neurons",evident
same,reversibility of inhibition of choline responses,"[1]; 1 nM, recovery after 6 min of peptide washout",reversibly
same,effect on choline-induced currents,"[2]; 1 nM peptide, VTA DAergic neurons",not sensitive
same,effect on choline-induced currents,[5],did suppress
same,effect on choline-induced currents,"[4]; 1 nM peptide, MS/DB neurons from β2−/− mice",failed to suppress
same,inhibition of GABA-induced currents,GABAA receptors,insensitive
same,inhibition of glutamate-induced currents,[6],insensitive
"fibrillar Aβ: Aβ1-42 stock incubated at 37° C. for 48 h at pH 6.0, predominantly fibrillar form",form-dependent suppression of choline-induced responses,[1]; MS/DB neurons,weaker inhibitory effect
"monomeric Aβ1-42: Aβ1-42 reconstituted in DMSO, predominant monomeric form",form-dependent suppression of choline-induced responses,[1]; MS/DB neurons,failed to suppress
"oligomeric Aβ1-42: Aβ1-42 reconstituted in distilled water, predominantly oligomeric form",form-dependent suppression of choline-induced responses,[1]; MS/DB neurons,greatest suppression
